US9394544B2, “Ameliorating oxidative stress in neurodegenerative disease via Nox1 targeting” (University of Central Florida Research Foundation, Inc., priority 2013, dated 2016)

What was measured:
[1] = tested on: α-synuclein; assay: α-Synuclein protein levels (immunoblot) in N27 cells exposed to PQ; format: cell-based, rat
Method: The N27 cells were grown in RPMI 1640 medium containing 10% fetal bovine serum (FBS), 100 U penicillin, and 50 μg/ml streptomycin, in a humidified atmosphere of 5% CO2 at 37° C. N27 cultures were prepared for experiments by plating the cells on polystyrene tissue culture dishes at a density of 0.5×10^5 cells/well in 24-well culture plates with glass coverslip and at 1.5×10^5 cells/well in 6-well culture plates.
For Western blot, brain tissues were lysed on ice in radioimmunoprecipitation assay buffer containing 50 mMTris/HCl, pH 8.0, 150 mM NaCl, 2 mM sodium orthovanadate, 1% Nonidet-P40 (NP-40), 0.5% sodium deoxycholate, and 0.1% SDS, containing 1% of a protease inhibitor mixture (AEBSF, pepstatinA, E-64, bestatin, leupeptin, and aprotinin). The soluble fraction was obtained and equal amounts of cell lysate protein were loaded in each lane of a 12% SDS-PAGE or 4/10% to 20% polyacrylamide gel. After electrophoresis and transfer onto a polyvinylidene difluoride (PVDF) membrane, specific protein bands were detected using appropriate primary antibodies (rabbit anti-Nox1, rabbit anti-α-synuclein, mouse anti-Ubiquitin, mouse anti-tyrosine hydroxylase (TH), and mouse anti-β-actin) and secondary antibodies conjugated to alkaline phosphatase or […] peroxidase (anti-rabbit or anti-mouse) followed by Enhanced Chemifluorescence (ECF) detection or Enhanced Chemiluminescence (ECL).

[2] = tested on: α-synuclein; assay: α-Synuclein aggregation (immunocytochemistry, PK resistance, A11) in N27 cells exposed to PQ; format: cell-based, rat; conditions: for increase in aggregated α-synuclein-positive cells vs control: 24 h
Method: The same Nox1 shRNA used for AAV2 construct was cloned into a pLVX-shRNA2 vector containing zsGreen1 (Clontech). To make lentiviral particles, ViraPower Lentiviral Expression System (Invitrogen) was used. […]. For 6-well plates, 8 μg of each plasmid was mixed in a 1:1:1:1 ratio in 100 μl of Xfect polymer buffer and then added to the cells. After 48 h, the viral-containing medium was harvested and centrifuged briefly at 500×g for 10 min to remove cellular debris and supernatant recovered and kept at −80° C. until used.
After each respective treatment, cells were fixed in 4% paraformaldehyde (PFA) for 20 min and permeabilized with 0.1% Triton X-100 in PBS for 10 min. Blocking was performed by incubation with 20% goat or donkey serum in PBS containing 0.1% Tween 20 for 90 min at room temperature. The cells were then incubated for 120 min at room temperature with the following primary antibodies, according to the aim of the experiment: goat anti-Nox1 (1:50), rabbit anti-TH (1:10,000), mouse anti-Flag (1:150), mouse anti-α-synuclein (1:150), and rabbit anti-A11 (2.5 μg/ml). After washing, cells were incubated for 120 min with the appropriate secondary antibodies conjugated to Alexa Fluor 647 or Alexa Fluor 488 (1:1000). For nuclear visualization coverslips were incubated with 2 μM Hoechst for 10 min. For quantification of Flag^+ and α-synuclein^+ cells, >30 different fields per coverslip were analyzed on a Nikon inverted fluorescent microscope under a 20× and 40× magnification.
Immunocytochemistry for proteinase K (PK)-resistant α-synuclein was performed based on a methodology reported previously (Neumann et al., 2002), with some modifications. Briefly, fixed cells were permeabilized with 0.1% Tween 20 and then digested for 30 min at 37° C. with PK (10 μg/ml). PK was inactivated with 3 M guanidine thiocyanate in 10 mM Tris-HCl solution for 10 min. Between each step, cells were washed gently three times with PBS. Cells were then incubated for 60 min with blocking solution containing 10% donkey serum followed by an overnight incubation with mouse anti-α-synuclein antibody (1:150). The day after, cells were incubated with secondary antibodies conjugated to Alexa Fluor 647 donkey anti-mouse for 60 min and with 2 μM Hoechst solution for 10 min. For PK-resistant α-synuclein evaluation in rat SN, 40 μm sections from 4% PFA fixed tissues were washed twice in distillated water with 0.1% Tween 20, and then incubated for 30 min in TBST. The tissues were incubated for 90 min at 55° C. with 50 μg/ml PK in TBST and further washed three times in TBS. PK was denatured by incubating the tissues in a 3 M guanidine thiocyanate in 10 mM Tris-HCl solution for 10 min. […]

Q: Which “increase of α-synuclein protein levels” value ([1]; 800 μM, 8 h) does the source give for `C[n+]1ccc(-c2cc[n+](C)cc2)cc1` [PQ, paraquat] here?
A: 55%

Q: And the “increase of α-synuclein protein levels” value ([1]; 800 μM, 24 h)?
A: 61%

Q: What about the “increase of α-synuclein protein levels” value ([1]; 1000 μM, 8 h) of the same compound?
A: 60%

Q: And the “increase of α-synuclein protein levels” value ([1]; 1000 μM, 24 h)?
A: 27%

Q: And the “A11 immunoreactivity vs controls” value [2]?
A: high A11 immunoreactivity

Q: And the “PK-resistant α-synuclein immunoreactivity” value [2]?
A: higher PK-resistant α-synuclein immunoreactivity

Q: And the “increase in aggregated α-synuclein-positive cells vs control” value ([2]; 800 μM)?
A: 62%

Q: And the “increase in aggregated α-synuclein-positive cells vs control” value ([2]; 1000 μM)?
A: 64%
